pIC50: −log10 of the molar value.
Key:
[1] = target: ALK tyrosine kinase receptor (Homo sapiens, UniProt Q9UM73); test: Inhibition of recombinant human wild type ALK using tyrosine kinase substrate-biotin after 30 mins by HTRF assay
[2] = target: ALK tyrosine kinase receptor (Homo sapiens, UniProt Q9UM73, L1196M); test: Inhibition of recombinant human ALK L1196M mutant using tyrosine kinase substrate-biotin after 30 mins by HTRF assay
NCI-H2228 = test: Antiproliferative activity against human NCI-H2228 cells after 96 hrs by CellTiter-Glo assay; assay type: functional, cell-based; details: NCI-H2228, 96 h
[3] = Antiproliferative activity against human KARPAS299 cells after 96 hrs by CellTiter-Glo assay; assay type: functional, cell-based; details: KARPAS-299, 96 h
[4] = Ratio of IC50 for human ERG to IC50 for human NCI-H2228 cells

ALK tyrosine kinase receptor (Homo sapiens, UniProt Q9UM73, L1196M), sequence (Q9UM73 19-1620 L1196M limits assumed): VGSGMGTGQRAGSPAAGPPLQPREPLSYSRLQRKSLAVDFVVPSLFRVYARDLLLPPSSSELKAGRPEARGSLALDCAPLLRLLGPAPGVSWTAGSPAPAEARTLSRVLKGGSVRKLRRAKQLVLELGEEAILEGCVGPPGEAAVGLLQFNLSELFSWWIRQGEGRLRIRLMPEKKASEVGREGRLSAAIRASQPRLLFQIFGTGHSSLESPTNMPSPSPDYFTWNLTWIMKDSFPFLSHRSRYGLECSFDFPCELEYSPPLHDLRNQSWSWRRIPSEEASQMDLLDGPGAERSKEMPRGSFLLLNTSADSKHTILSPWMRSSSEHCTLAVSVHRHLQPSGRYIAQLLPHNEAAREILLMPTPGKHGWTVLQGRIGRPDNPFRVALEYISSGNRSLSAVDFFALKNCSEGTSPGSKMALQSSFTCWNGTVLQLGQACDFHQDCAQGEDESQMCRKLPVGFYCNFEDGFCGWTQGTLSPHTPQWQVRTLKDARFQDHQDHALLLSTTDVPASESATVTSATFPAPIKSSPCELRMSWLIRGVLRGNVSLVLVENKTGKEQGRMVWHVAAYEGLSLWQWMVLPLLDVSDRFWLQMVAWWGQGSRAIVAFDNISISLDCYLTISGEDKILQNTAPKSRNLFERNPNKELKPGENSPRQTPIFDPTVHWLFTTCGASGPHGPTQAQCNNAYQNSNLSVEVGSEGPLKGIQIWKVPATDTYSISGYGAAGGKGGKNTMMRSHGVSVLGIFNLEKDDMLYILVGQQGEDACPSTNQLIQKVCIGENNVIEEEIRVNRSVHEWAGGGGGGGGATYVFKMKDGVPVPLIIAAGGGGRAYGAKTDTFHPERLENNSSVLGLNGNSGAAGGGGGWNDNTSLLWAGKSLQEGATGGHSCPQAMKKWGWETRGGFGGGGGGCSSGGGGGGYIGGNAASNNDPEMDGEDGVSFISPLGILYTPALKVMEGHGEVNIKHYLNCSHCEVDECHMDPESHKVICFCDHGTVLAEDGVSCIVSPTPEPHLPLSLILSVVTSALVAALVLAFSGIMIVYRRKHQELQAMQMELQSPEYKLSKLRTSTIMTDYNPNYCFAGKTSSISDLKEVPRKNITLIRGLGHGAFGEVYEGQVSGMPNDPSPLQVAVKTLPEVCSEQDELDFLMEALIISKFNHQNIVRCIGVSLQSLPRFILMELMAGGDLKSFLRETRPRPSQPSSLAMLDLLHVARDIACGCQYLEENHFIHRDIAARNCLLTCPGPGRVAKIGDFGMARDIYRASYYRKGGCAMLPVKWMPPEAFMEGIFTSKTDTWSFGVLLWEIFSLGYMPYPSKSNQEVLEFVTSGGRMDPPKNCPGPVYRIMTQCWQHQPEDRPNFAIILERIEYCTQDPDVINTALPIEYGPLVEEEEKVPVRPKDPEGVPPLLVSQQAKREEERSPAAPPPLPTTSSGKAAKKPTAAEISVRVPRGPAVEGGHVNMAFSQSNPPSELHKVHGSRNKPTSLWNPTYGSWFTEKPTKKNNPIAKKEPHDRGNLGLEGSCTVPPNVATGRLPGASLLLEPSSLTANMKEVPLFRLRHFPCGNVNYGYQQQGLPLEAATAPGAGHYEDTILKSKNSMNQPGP
ALK tyrosine kinase receptor (Homo sapiens, UniProt Q9UM73), sequence (Q9UM73 whole entry): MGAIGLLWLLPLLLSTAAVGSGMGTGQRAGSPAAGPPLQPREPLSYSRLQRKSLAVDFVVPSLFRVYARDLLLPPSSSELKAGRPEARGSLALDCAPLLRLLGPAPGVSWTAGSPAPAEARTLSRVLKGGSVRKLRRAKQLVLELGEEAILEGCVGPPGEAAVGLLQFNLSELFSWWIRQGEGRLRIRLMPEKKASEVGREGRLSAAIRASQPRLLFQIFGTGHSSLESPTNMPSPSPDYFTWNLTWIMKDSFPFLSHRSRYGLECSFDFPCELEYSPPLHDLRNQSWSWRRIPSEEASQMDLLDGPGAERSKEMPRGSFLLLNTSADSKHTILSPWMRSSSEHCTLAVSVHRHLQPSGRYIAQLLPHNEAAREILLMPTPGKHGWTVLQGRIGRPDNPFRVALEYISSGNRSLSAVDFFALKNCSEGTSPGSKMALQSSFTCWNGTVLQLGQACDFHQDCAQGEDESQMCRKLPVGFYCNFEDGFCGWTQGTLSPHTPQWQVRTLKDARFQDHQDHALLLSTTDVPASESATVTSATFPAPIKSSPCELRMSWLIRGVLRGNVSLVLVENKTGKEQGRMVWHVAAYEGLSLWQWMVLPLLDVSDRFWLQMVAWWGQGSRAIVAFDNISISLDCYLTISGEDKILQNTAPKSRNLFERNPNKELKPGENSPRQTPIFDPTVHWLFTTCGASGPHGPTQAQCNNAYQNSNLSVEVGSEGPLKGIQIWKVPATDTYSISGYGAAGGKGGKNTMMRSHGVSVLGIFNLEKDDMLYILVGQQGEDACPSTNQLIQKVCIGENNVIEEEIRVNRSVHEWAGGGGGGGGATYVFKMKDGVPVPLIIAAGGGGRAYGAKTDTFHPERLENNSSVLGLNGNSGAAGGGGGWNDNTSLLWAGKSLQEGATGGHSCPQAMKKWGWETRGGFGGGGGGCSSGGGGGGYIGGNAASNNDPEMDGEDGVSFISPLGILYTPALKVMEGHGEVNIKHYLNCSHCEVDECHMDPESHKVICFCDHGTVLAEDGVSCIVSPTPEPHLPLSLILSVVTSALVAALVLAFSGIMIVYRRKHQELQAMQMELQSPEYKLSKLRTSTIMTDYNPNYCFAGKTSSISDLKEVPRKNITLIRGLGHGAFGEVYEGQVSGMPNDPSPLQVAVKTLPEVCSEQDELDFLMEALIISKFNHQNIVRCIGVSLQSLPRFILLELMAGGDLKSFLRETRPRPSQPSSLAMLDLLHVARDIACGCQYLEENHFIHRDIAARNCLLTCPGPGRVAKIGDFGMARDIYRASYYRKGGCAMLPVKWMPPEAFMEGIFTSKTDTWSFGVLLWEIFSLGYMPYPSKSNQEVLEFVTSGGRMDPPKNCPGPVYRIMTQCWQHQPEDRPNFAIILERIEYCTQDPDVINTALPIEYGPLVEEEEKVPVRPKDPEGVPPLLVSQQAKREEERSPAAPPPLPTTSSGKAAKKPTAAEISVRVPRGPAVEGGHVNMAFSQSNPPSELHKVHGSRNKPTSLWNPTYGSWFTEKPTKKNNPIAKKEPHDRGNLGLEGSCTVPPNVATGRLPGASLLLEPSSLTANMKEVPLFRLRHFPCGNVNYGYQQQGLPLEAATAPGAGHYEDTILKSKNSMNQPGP

| Structure (SMILES) | pIC50 [1] | pIC50 [2] | pIC50 (NCI-H2228) | pIC50 [3] | Ratio IC50 [4] |
| --- | --- | --- | --- | --- | --- |
| Cc1nc(Nc2nc(Nc3cc(C)c(C4CCN(C)CC4)cc3OC3CC3)ncc2Cl)c(S(=O)(=O)C(C)C)s1 | 8.52 | 7.72 | 6.31 |  |  |
| COc1ccc(Cn2cc(Nc3nc(Nc4cc(C)c(C5CCNCC5)cc4OC(C)C)ncc3Cl)c(S(=O)(=O)C(C)C)n2)cc1 | 6.89 | 6.80 |  | < 6.20 |  |
| Cc1cc(Nc2ncc(Cl)c(Nc3cn(C)nc3S(=O)(=O)C3CC3)n2)c(OC(C)C)cc1C1CCNCC1 | 6.40 | < 5.00 | < 5.00 | < 5.00 |  |
| Cc1cc(Nc2ncc(Cl)c(Nc3cn(C)nc3C#N)n2)c(OC2CC2)cc1C1CCN(C)CC1 |  |  | 6.57 |  |  |
| Cc1cc(Nc2ncc(Cl)c(Nc3cn(C)nc3S(=O)(=O)C(C)C)n2)c(OC2CC2)cc1[C@H]1CC[C@H](NC(=O)C2CC2)CC1 |  |  | 6.81 |  |  |
| Cc1cc(Nc2ncc(Cl)c(Nc3c[nH]nc3S(=O)(=O)C(C)C)n2)c(OC(C)C)cc1C1CCNCC1 | 7.66 | 7.55 |  | 5.90 |  |
| Cc1cc(Nc2ncc(Cl)c(Nc3cn(C)nc3S(=O)(=O)N(C)C)n2)c(OC(C)C)cc1C1CCNCC1 | 5.18 | < 5.00 |  |  |  |
| Cc1cc(Nc2ncc(Cl)c(Nc3cn(C)nc3S(=O)(=O)C(C)C)n2)c(OC2CC2)cc1C1CCOCC1 |  |  | 6.76 | 7.74 | 21 |
| Cc1cc(Nc2ncc(Cl)c(Nc3cn(C)nc3S(=O)(=O)C(C)C)n2)c(OC2CC2)cc1[C@H]1CC[C@H](NCCN(C)C)CC1 |  |  | 6.68 |  |  |

The next lines start with results.

| pIC50 [1] | pIC50 [2] | pIC50 (NCI-H2228) | Structure (SMILES) | pIC50 [3] | Ratio IC50 [4] |
| --- | --- | --- | --- | --- | --- |
| 8.52 | 8.05 | 7.01 | Cc1cc(Nc2ncc(Cl)c(Nc3cn(C)nc3S(=O)(=O)C(C)C)n2)c(OC2CC2)cc1C1CCS(=O)(=O)CC1 |  | 206 |
|  |  | 7.16 | Cc1cc(Nc2ncc(C)c(Nc3cn(C)nc3S(=O)(=O)C(C)C)n2)c(OC2CC2)cc1C1CCN(C)CC1 |  |  |
|  |  | 7.06 | Cc1cc(Nc2ncc(Cl)c(Nc3cn(C)nc3S(=O)(=O)C(C)C)n2)c(OC2CC2)cc1[C@H]1CC[C@H](NC2CC2)CC1 | 8.05 | 23 |
|  |  | 7.22 | CCN(CC)[C@H]1CC[C@@H](c2cc(OC3CC3)c(Nc3ncc(Cl)c(Nc4cn(C)nc4S(=O)(=O)C(C)C)n3)cc2C)CC1 |  |  |
| 7.80 | 7.70 | 6.82 | Cc1cc(Nc2ncc(Cl)c(Nc3cn(C)nc3S(=O)(=O)C(C)C)n2)c(OC2CC2)cc1[C@H]1CC[C@H](NS(C)(=O)=O)CC1 | 7.74 |  |
| 8.10 | 7.70 | 6.94 | Cc1cc(Nc2ncc(Cl)c(Nc3cn(C)nc3S(=O)(=O)C(C)C)n2)c(OC2CC2)cc1[C@H]1CC[C@@H](NC2CC2)CC1 |  | 15 |
|  |  | 7.06 | Cc1cc(Nc2ncc(C#N)c(Nc3cn(C)nc3S(=O)(=O)C(C)C)n2)c(OC2CC2)cc1C1CCN(C)CC1 |  |  |
| 8.30 | 8.00 | 7.14 | Cc1cc(Nc2ncc(Cl)c(Nc3cn(C)nc3S(=O)(=O)C(C)C)n2)c(OC2CC2)cc1[C@H]1CC[C@@H](NC(C)C)CC1 |  | 15 |
